From patent publication US5126344A, “Diazine derivatives and pharmaceutical use” (Imperial Chemical Industries PLC, priority 1989, dated 1992)

Key:
[1] = target: T1, angiotensin II (AII) receptors (Cavia porcellus, UniProt Q9WV26); test: Test A: displacement of radiolabelled AII binding to cell surface membrane fraction from guinea pig adrenal gland; conditions: guinea pig adrenal gland membranes, read-out: IC50 (concentration for 50% displacement of radiolabelled AII binding)
T1 construct: the source of cell surface membranes is the guinea pig adrenal gland; from tissue; host or cells: guinea pig adrenal gland, cell surface membrane fraction
T1 sequence (Q9WV26 1-359): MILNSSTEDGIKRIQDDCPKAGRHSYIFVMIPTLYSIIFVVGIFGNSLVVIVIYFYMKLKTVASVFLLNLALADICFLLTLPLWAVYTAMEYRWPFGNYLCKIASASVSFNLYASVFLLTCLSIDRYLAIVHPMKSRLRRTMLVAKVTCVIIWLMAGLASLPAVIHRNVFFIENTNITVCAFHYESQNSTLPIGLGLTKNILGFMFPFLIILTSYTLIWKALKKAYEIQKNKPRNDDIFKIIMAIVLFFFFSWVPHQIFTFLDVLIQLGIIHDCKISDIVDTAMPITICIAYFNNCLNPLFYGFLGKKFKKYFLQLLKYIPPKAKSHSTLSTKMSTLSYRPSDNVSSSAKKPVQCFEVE
Method: This in vitro procedure involves the incubation of the test compound initially at a concentration of 100 micromolar (or less) in a buffered mixture containing fixed concentrations of radiolabelled AII and a cell surface membrane fraction prepared from a suitable angiotensin target tissue. In this test, the source of cell surface membranes is the guinea pig adrenal gland which is well known to respond to AII. Interaction of the radiolabelled AII with its receptors (assessed as radiolabel bound to the particulate membrane fraction following removal of unbound radiolabel by a rapid filtration procedure such as is standard in such studies) is antagonized by compounds which also bind to the membrane receptor sites and the degree of antagonism (observed in the test as displacement of membrane-bound radioactivity) is determined readily by comparing the receptor-bound radioactivity in the presence of the test compound at the specified test concentration with a control value determined in the absence of the test compound. Using this procedure compounds showing at least 50% displacement of radiolabelled AII binding at a concentration of 10^-4 M are retested at lower concentrations to determine their potency. […]

[2] = tested on: pressor responses induced by AII; test: Test C: antagonism of AII-induced pressor responses in terminally-anaesthetised or conscious rats; type: in vivo; conditions: iv, rat, i.v. administration
Method: This in vivo test involves using terminally-anaesthetised or conscious rats in which an arterial catheter has been implanted under anaesthesia for the measurement of changes in blood pressure. The AII antagonistic effects of the test compound following oral or parenteral administration, are assessed against pressor responses induced by AII. To ensure that the effect is specific the effect of the test compound on vasopressin-induced pressor responses may also be determined in the same preparation.

CCc1cc(OCc2ccc(-c3ccccc3-c3nnn[nH]3)cc2)c2nc(OC)ccc2n1.Cl [Example 4, 2-ethyl-6-methoxy-4-[(2'-(1H-tetrazol-5-yl)-biphenyl-4-yl)methoxy]-1,5-naphthyridine hydrochloride]
IC50 [1]: 20 nM
ED50 [2]: 0.6 mg/kg
